Experimental data from ChEMBL document CHEMBL1201862, “PubChem BioAssay data set” (2004).
Active and inactive are the calls of the source.

Key:
[1] = biological target: Alkaline phosphatase, placental type (Homo sapiens, UniProt P05187); assay: human placental alkaline phosphatase inhibition – biochemical, luminescence, confirmation (AID 1512); type: functional
[2] = biological target: T1, Alkaline phosphatase, tissue-nonspecific isozyme (Homo sapiens, UniProt P05186); assay: potency against alkaline phosphatase TNAP – biochemical, luminescent, dose response, SAR follow-up (AID 1056)
T1 sequence (P05186 whole entry): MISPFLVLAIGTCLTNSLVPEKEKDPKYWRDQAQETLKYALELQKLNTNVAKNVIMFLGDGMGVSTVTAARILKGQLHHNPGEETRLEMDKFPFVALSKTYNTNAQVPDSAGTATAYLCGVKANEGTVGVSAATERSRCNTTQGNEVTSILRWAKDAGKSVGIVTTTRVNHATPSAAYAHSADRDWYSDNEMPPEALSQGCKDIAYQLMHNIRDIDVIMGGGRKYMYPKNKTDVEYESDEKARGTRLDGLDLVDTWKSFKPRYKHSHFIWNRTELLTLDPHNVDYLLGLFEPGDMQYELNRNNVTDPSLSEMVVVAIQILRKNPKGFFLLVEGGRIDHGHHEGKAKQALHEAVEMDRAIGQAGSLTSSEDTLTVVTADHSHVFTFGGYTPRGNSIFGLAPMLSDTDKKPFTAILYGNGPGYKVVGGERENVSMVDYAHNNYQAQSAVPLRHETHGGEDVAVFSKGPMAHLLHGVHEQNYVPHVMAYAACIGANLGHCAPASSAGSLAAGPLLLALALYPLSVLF

[3] = biological target: Voltage-dependent T-type calcium channel subunit alpha-1H (Homo sapiens, UniProt O95180); assay: human CACNA1H calcium influx blockade – cell-based, synthetic library set 1, calcium flux (AID 493022); type: functional
[4] = test system: Streptococcus sp. 'group A'; assay: Streptococcus pyogenes SK(-)GAS viability under kanamycin – luminescence, BacTiterGlo, confirmation, counter-screen for streptokinase expression inhibitor project, dose response (AID 1900); type: functional, organism-based
Streptokinase A = biological target: T2, Streptokinase A (Streptococcus pyogenes serotype M1, UniProt P10520); assay: viability-normalized secreted streptokinase activity reduction – plasminogen activation absorbance, OD405, dose response (AID 1914); type: functional, Streptococcus pyogenes M1 GAS;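 further: secreted streptokinase activity via plasminogen activation per viability signal from cell pellet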
T2 sequence (P10520 whole entry): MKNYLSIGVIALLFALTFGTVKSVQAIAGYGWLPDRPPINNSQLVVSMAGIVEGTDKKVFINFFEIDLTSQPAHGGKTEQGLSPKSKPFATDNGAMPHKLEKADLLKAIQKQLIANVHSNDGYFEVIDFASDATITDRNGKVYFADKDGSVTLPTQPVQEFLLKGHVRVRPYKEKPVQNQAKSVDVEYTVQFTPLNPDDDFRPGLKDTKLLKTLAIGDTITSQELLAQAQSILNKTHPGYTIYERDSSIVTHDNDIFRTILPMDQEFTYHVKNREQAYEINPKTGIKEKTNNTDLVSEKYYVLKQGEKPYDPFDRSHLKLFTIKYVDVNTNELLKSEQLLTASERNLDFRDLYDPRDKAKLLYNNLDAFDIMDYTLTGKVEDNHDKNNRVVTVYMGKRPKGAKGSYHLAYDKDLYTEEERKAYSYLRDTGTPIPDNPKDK

Streptococcus = assay: GAS UMAA2166 growth inhibition – luminescence, BacTiterGlo, counter-screen for streptokinase expression inhibitor project, dose response (AID 1915); type: functional, organism-based;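 further: potency for reduction of bacterial viability or growth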
[5] = HEK-293T viability loss after treatment – luminescence, T-cell screen hits, cytotoxicity control for TCR NF-kB inhibitor project, dose response (AID 489026); type: functional, cell-based;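 further: cells exposed to compound about 14 hours before the viability readout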
[6] = biological target: T3, Corticotropin-releasing factor receptor 2/Corticotropin-releasing factor-binding protein (Homo sapiens, UniProt P24387+Q13324); assay: Dose Response confirmation of uHTS hits for small molecule antagonists of the CRF-binding protein and CRF-R2 receptor complex.; type: functional; details: read-out: IC50_Mean
T3 sequence (Q13324 whole entry): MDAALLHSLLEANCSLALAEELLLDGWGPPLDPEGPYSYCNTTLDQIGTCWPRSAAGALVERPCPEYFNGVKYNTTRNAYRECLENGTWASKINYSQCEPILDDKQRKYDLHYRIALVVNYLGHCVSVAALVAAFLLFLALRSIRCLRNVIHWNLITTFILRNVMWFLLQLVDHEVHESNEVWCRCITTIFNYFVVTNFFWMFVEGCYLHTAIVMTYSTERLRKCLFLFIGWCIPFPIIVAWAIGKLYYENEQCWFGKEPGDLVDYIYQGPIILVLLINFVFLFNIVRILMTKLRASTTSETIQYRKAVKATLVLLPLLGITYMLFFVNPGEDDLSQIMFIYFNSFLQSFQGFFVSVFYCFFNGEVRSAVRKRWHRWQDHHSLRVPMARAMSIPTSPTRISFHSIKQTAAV
T3 sequence (P24387 whole entry): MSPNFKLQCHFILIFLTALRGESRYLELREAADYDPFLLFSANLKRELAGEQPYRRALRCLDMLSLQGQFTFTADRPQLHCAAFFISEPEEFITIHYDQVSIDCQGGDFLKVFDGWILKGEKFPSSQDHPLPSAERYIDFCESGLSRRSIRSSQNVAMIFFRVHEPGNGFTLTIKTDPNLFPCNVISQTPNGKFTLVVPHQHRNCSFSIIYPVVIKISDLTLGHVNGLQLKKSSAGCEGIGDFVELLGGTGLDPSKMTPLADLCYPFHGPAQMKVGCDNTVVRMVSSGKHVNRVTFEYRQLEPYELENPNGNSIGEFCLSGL

[7] = biological target: T3, Corticotropin-releasing factor receptor 2/Corticotropin-releasing factor-binding protein; assay: activators of CRF receptor 2 with binding protein – uHTS hits, confirmation (AID 602473); type: functional; details: read-out: EC50_Mean
[8] = biological target: COUP transcription factor 2 (Homo sapiens, UniProt P24468); assay: Luminescence-based cell-based high throughput dose response assay to identify inhibitors of COUP-TFII (NR2F2).; type: functional;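 further: HEK293 cells transiently cotransfected with COUP-TFII expression vector and reporter; luciferase reporter luminescence driven by COUP-TFII from the pX2-168 reporter plasmid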
[9] = biological target: T4, Voltage-gated N-type calcium channel alpha-1B subunit/Amyloid beta A4 precursor protein-binding family A member 1 (Homo sapiens, UniProt Q00975+Q02410); type: protein assay
T4 sequence (Q00975 whole entry): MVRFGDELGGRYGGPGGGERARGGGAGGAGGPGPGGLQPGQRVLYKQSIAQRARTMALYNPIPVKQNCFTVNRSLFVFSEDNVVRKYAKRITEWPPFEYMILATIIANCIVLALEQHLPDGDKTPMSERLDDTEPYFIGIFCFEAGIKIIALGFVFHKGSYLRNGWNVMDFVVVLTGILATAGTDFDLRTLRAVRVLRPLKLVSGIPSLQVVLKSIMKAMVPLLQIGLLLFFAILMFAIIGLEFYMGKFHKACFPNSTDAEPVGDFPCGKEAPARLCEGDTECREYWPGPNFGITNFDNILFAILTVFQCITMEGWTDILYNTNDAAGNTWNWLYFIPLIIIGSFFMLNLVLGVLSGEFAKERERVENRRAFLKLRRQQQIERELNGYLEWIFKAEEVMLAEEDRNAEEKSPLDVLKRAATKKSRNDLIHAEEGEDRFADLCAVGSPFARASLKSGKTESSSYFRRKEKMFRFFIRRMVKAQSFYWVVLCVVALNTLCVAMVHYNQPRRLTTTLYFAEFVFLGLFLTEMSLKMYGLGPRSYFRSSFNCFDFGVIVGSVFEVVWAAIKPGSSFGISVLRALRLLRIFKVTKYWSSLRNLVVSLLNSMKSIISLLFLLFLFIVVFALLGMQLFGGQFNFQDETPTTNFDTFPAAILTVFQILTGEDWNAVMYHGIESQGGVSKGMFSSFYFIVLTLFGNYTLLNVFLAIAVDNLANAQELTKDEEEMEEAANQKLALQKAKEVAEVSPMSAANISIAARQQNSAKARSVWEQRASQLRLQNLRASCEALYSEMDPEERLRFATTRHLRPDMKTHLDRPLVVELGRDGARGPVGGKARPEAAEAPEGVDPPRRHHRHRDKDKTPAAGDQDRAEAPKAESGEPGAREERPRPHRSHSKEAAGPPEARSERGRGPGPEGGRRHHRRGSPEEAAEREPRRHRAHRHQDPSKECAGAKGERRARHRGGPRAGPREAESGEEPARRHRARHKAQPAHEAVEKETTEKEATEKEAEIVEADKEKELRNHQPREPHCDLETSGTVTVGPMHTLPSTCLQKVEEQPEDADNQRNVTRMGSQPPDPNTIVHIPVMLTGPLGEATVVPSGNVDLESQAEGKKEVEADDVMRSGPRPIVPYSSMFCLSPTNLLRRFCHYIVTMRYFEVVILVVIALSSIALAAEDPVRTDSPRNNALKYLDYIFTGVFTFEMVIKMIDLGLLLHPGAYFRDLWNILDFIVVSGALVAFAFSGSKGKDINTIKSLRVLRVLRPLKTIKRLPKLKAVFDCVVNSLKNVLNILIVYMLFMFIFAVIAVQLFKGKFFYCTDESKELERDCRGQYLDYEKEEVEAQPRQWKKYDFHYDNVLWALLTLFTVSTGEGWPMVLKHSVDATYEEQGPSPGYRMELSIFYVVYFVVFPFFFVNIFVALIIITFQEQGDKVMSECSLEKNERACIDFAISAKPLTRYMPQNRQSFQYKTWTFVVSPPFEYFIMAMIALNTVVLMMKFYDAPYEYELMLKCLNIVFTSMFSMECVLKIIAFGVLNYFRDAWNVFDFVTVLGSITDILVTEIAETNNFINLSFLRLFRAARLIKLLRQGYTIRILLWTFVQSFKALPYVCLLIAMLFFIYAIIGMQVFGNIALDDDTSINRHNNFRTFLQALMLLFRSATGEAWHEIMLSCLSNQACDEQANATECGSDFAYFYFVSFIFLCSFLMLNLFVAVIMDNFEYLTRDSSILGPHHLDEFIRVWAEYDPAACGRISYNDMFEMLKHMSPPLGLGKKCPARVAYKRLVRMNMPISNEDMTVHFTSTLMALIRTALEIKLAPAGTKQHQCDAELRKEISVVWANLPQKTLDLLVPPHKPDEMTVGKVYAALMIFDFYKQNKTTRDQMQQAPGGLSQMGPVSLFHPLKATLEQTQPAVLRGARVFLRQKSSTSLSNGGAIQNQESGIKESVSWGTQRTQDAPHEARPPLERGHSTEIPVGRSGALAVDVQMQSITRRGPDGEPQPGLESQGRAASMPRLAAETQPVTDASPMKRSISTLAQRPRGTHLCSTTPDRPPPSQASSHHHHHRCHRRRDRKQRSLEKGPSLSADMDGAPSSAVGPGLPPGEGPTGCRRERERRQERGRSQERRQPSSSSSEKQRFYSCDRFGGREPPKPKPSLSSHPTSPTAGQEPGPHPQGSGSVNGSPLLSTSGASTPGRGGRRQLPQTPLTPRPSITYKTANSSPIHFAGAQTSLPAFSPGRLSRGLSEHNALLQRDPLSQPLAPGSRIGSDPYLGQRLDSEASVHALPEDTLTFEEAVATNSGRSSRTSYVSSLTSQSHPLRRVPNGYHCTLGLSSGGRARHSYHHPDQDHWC
T4 sequence (Q02410 whole entry): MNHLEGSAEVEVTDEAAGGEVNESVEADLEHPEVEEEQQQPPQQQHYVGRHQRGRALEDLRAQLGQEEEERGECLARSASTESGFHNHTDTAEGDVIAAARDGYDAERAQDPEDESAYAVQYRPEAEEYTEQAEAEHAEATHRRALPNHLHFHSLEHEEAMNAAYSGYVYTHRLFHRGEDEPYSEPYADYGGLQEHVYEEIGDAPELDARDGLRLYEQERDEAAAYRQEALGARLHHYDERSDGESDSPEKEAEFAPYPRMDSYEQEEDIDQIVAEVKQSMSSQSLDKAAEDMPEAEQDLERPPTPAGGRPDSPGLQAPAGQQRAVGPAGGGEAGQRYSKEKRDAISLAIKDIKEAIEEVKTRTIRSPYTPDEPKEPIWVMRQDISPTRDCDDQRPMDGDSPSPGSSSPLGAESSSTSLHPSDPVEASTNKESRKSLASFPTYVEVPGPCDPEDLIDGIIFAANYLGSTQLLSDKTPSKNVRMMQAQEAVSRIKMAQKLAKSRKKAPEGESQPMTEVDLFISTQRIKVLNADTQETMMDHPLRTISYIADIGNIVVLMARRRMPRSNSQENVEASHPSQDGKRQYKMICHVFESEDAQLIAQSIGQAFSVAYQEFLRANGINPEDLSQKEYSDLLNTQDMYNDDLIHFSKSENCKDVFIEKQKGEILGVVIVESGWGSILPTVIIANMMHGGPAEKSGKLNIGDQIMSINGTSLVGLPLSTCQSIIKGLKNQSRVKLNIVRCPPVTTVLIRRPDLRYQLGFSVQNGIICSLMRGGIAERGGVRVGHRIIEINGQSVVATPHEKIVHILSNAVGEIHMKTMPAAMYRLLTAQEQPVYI

[10] = biological target: T4, Voltage-gated N-type calcium channel alpha-1B subunit/Amyloid beta A4 precursor protein-binding family A member 1; type: protein assay; remark: listed apart in the source
[11] = biological target: T5, Runt-related transcription factor 1/Core-binding factor subunit beta (Homo sapiens, UniProt Q01196+Q13951); assay: disruptors of Runt domain/CBFb-SMMHC interaction – biochemical, FRET, Cerulean-Runt, Venus-CBFb-SMMHC, uHTS, […] (AID 1434); type: protein assay
T5 sequence (Q01196 whole entry, the tested form may be a part): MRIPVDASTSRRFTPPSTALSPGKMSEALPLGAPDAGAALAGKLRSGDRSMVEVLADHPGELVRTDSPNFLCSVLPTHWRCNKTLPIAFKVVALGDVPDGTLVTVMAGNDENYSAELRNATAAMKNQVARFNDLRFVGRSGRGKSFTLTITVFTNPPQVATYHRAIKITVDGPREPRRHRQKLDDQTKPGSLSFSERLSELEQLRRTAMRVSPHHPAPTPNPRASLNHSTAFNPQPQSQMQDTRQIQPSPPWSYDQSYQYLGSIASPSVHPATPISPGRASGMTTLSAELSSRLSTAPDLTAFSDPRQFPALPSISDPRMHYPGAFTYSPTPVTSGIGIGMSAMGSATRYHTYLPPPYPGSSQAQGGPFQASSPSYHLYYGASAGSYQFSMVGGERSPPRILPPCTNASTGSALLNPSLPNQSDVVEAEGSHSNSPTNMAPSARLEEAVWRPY
T5 sequence (Q13951 whole entry, the tested form may be a part): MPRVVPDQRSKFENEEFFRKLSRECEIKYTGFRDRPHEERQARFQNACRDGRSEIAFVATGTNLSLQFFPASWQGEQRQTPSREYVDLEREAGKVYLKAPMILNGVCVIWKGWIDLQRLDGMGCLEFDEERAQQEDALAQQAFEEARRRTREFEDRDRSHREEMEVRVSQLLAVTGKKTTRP

[12] = biological target: T5, Runt-related transcription factor 1/Core-binding factor subunit beta; assay: Runt domain/CBFb-SMMHC interaction disruptors – biochemical, TR-FRET (AID 1438); type: protein assay
[13] = viability of PTEN-deleted HCT116 cells – cell-based, HCT116 PTEN knockout, dose response (AID 1047); type: functional;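 further: HCT116 colon tumor cells with PTEN knocked out; cells exposed to compound for 60 hours before readout; potency for loss of cell viability measured by luminescence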
[14] = viability of HCT116 lacking mutant beta-catenin – cell-based, human colon tumor, dose response (AID 1045); type: functional;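 further: HCT116 colon tumor cells with beta catenin knocked out; cells exposed to compound for 60 hours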
Hexokinase HKDC1 = biological target: T6, Hexokinase HKDC1 (Homo sapiens, UniProt Q2TB90); assay: inhibition of HKDC1 glucose phosphorylation – biochemical, W721R variant, dose response (AID 504729); type: functional
T6 sequence (Q2TB90 whole entry): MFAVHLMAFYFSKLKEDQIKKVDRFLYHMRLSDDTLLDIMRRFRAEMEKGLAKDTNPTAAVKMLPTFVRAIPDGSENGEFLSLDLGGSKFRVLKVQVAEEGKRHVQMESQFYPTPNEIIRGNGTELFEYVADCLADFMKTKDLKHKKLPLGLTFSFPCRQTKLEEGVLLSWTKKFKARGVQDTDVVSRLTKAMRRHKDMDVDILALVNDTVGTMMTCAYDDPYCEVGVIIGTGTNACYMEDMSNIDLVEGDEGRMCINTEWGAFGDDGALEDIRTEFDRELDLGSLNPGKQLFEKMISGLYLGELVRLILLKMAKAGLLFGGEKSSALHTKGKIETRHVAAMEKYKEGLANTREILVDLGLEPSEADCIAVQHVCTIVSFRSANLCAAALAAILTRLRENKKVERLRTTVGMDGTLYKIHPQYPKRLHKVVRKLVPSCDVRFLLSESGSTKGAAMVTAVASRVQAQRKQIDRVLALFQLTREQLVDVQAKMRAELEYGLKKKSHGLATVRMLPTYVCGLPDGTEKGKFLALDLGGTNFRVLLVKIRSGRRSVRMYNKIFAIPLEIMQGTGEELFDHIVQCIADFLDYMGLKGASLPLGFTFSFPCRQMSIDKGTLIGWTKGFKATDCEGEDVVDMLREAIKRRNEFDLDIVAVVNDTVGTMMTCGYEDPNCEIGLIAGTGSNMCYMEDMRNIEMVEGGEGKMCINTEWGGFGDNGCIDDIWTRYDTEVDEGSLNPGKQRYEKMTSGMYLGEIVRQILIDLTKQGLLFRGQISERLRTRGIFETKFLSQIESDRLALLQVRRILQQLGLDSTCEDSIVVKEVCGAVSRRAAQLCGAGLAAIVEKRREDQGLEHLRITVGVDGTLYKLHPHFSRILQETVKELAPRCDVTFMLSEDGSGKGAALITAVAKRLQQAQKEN

[15] = Fluorescence-based cell-based high throughput dose response assay for inhibitors of the interaction of nucleotide-binding oligomerization domain containing 2 (NOD2) and the receptor-interacting serine-threonine kinase 2 (RIPK2).; type: functional; details: Homo sapiens
Beta Lactamase = Beta Lactamase (Pseudomonas aeruginosa, UniProt Q932Y6); assay: BLA reporter interference, concentration series – BLA reporter cells, FRET fluorescence, artefact control for NOD2-RIPK2 interaction inhibitor project, dose response (AID 651552); type: functional, cell-based
Trypsin = Trypsin (Sus scrofa, UniProt P00761); assay: trypsin protease activity blockade – biochemical, quenched peptide fluorescence, cherry-pick, selectivity assay for Rce1 protease inhibitor project, dose response (AID 488789)
CAAX prenyl protease 2 = biological target: T7, CAAX prenyl protease 2 (Saccharomyces cerevisiae S288c, UniProt Q03530); type: biochemical
T7 sequence (Q03530 whole entry): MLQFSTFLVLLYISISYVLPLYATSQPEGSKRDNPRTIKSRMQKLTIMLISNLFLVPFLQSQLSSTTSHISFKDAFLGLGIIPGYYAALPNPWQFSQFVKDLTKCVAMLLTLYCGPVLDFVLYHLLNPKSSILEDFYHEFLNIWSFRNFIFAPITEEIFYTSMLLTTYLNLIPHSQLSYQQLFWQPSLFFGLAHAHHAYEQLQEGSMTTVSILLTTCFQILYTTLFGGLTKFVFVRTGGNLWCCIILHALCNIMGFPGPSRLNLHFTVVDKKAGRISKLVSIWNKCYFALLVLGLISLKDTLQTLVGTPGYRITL

Coagulation factor XII = Coagulation factor XII (Homo sapiens, UniProt P00748); type: functional;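 further: activated factor XIIa alpha cleaving a fluorogenic AMC peptide substrate; inhibitor potency from loss of enzyme activity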
Chain of Coagulation factor XII (P00748 20-372 limits assumed): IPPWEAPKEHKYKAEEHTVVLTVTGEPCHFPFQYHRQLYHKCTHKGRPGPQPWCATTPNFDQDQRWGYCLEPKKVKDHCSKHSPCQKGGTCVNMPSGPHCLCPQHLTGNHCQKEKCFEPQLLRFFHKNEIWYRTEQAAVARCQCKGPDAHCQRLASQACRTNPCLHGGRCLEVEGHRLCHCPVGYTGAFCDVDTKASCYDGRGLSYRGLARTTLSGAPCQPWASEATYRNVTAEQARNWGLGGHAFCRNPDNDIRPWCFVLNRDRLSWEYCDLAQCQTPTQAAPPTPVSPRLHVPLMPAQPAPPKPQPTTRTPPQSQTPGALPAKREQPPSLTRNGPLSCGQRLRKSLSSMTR
Chain of Coagulation factor XII (P00748 373-615 limits assumed): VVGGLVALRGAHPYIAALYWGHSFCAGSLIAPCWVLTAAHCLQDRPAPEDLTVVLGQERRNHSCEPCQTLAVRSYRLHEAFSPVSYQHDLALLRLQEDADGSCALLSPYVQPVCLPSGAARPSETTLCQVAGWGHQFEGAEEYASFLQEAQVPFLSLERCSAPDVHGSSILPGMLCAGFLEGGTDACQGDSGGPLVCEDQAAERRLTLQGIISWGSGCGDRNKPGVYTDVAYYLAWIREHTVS

Hexokinase = Hexokinase (Trypanosoma brucei, UniProt Q38C41); assay: Confirmation assay for inhibitors of Trypanosoma brucei hexokinase 1-Analogue-first series. [Related pubchem assays (depositor defined):AID1430, AID1632, AID2516, AID2560, AID2579, AID2600, AID449725, AID492951]; type: functional
SUMO-activating enzyme = SUMO-activating enzyme (Homo sapiens, UniProt Q9UBT2); assay: blockers of SAE1/SAE2–UBC9 SUMO transfer – biochemical, HTRF, uHTS, primary screen (AID 2006); type: protein-complex assay
[16] = biological target: T8, Mannose-6-phosphate isomerase (Homo sapiens, UniProt P34949); assay: MPI inhibition at elevated mannose 6-phosphate – biochemical, fluorescence intensity, high mannose 6-phosphate, primary screen (AID 1220)
T8 sequence (P34949 whole entry): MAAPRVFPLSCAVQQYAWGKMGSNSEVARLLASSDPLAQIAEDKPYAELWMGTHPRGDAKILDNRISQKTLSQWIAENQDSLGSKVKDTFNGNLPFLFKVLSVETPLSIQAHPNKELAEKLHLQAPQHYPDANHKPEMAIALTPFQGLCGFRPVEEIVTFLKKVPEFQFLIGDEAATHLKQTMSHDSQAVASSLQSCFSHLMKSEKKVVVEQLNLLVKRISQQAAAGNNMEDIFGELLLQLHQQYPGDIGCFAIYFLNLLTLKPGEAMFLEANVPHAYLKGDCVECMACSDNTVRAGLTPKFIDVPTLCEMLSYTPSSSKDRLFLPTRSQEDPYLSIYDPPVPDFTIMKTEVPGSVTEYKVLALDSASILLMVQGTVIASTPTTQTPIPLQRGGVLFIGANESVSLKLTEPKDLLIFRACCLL

Chain of Alkaline phosphatase, placental type (P05187 whole entry): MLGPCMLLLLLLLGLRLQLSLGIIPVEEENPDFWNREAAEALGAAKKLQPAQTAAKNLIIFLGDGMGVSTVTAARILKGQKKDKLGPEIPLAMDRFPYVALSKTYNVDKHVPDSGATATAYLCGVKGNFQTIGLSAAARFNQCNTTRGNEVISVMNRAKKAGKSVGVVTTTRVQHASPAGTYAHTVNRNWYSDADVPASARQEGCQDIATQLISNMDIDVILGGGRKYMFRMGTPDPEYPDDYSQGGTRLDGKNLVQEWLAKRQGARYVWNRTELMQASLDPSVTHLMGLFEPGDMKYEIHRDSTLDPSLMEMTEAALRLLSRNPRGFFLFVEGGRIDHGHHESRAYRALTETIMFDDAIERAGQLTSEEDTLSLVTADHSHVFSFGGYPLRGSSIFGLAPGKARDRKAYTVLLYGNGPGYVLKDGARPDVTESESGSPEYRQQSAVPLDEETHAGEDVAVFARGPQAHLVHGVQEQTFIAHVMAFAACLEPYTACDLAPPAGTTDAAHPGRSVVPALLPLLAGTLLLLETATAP

O=C(CSc1nc2ccccc2[nH]1)c1ccc(O)c(O)c1
IC50 [1]: 4.79 µM (active) | IC50 [2]: 5.44 µM (active)

O=C(COc1ccccc1Cl)Nc1nnc(-c2ccc3c(c2)OCCO3)o1
EC50 [3]: 3.1 µM (active)

COc1ccc(-c2ccc3oc(-c4ccc(OC)cc4)c(C#CCO)c3c2)cc1
EC50 [4]: > 150 µM (not active) | EC50 (Streptokinase A): > 150 µM (not active) | EC50 (Streptococcus): > 150 µM (not active) | IC50 [5]: > 80 µM (inactive) | IC50 [6]: > 47.1 µM (inactive) | EC50 [7]: > 53 µM (inactive) | IC50 [8]: 3.38 µM (active)

COc1ccc(-c2cc3c(=O)n(CC(=O)Nc4ccc(C(C)=O)cc4)ncn3n2)cc1
IC50 [9]: 7.89 µM (active) | IC50 [10]: > 50 µM (inactive)

CCC(=O)Nc1c(S(=O)(=O)c2ccccc2)c2nc3ccccc3nc2n1Cc1ccccc1
IC50 [11]: 4.74 µM (active) | IC50 [12]: > 100 µM (inactive)

CC(C)(C=O)C1=CC(=O)c2ccccc2C1=O
EC50 [13]: 4.68 µM (active) | EC50 [14]: 4.58 µM (active) | IC50 (Hexokinase HKDC1): 27.9 µM (inactive) | IC50 [15]: 1.23 µM (active) | IC50 (Beta Lactamase): 11.5 µM (inactive)

O=C(COc1ccccc1F)Nc1nnc(-c2ccc3c(c2)CCCC3)o1
EC50 [3]: 1.7 µM (active)

CCn1cc(/C=C(\NC(=O)c2ccccc2)C(=O)N2CCOCC2)c2ccccc21
AC50 (Trypsin): 23.6 µM (active) | AC50 (CAAX prenyl protease 2): 5.85 µM (active)

C/C(Cc1ccccc1)=N\NC(=O)CNC(=O)c1ccc(Cl)cc1Cl
IC50 (Coagulation factor XII): > 50 µM (inactive)

CCCCN1C(=O)/C(=N\Nc2ccccc2Cl)c2ccccc21
IC50 [1]: 91.6 µM (active) | IC50 [2]: > 100 µM (inactive)

Cc1cccn2c(=O)c(/C=C(\C#N)C(=O)NCc3ccco3)c(N3CCCC(C)C3)nc12 (stereo unspecified)
IC50 [11]: > 100 µM (inactive) | IC50 [12]: > 100 µM (inactive)

c1ccc(-n2cccc2)c(N2CCCCC2)c1
IC50 (Coagulation factor XII): > 50 µM (inactive)

COc1ccc(C(=O)Nc2cccc(Cl)c2)cc1
IC50 (Hexokinase): > 25 µM (inactive)

CCN(CC)C(=O)C1CCCN(C(=O)Nc2ccc3nsnc3c2)C1 (stereo unspecified)
IC50 (SUMO-activating enzyme): 12 µM (active) | IC50 [16]: > 50 µM (not active)
